Experimental data taken from US6034067A, “Serine protease inhibitors” (Akzo Nobel, N.V., priority 1996, dated 2000).

Biological target: T1, Human thrombin (Homo sapiens, UniProt P00734)
T1 construct: purchased Centraal Laboratorium voor Bloedtransfusie, Amsterdam, The Netherlands
Assay: Anti-thrombin assay (hydrolysis of chromogenic substrate S-2238 by thrombin)
Format: biochemical
Details: final concentration causing 50% inhibition of the maximum absorbance of the blank; S-2238 substrate, TNP buffer pH 7.4, 37° C., absorbance at 405 nm
Description: Thrombin (Factor IIa) is a factor in the coagulation cascade.
At room temperature 0.075 ml and 0.025 ml test compound or reference compound solutions or vehicle are alternately pipetted into the wells of a microtiter plate and these solutions are diluted with 0.115 ml and 0.0165 ml TNP buffer, respectively. […] The plate is incubated (with shaking for 30 s) at 37° C.
All data are collected in an IBM personal computer using LOTUS-MEASURE.

| Compound | IC50 [nM] |
| --- | --- |
| CCS(=O)(=O)N[C@H](CC1CCCCC1)C(=O)N1CCC[C@H]1C(=O)NC(CCC(=O)NC(=N)N)C(=O)c1nccs1 (stereo partly drawn) [Example 4, EtSO2 -D-Cha-Pro-Glu(guanidine)-(2-thiazolyl)] | 2590 |
| CN[C@H](CC1CCCCC1)C(=O)N1CCC[C@H]1C(=O)NC(CCC(=O)NC(=N)N)C(=O)c1nccs1 (stereo partly drawn) [Example 6, N-Me-D-Cha-Pro-Glu(guanidine)-(2-thiazolyl)] | 320 |
| N=C(N)NC(=O)CCC(NC(=O)[C@@H]1CCCN1C(=O)[C@@H](CC1CCCCC1)NCC(=O)O)C(=O)c1nccs1 (stereo partly drawn) [Example 2, HOOC-CH2 -D-Cha-Pro-Glu(guanadine)-(2-thiazolyl)] | 34 |
